Measurements published in patent publication US20160166700A1, “METHOD FOR AMELIORATING LIVER FIBROSIS BY USING NANOPARTICLE CONTAINING TYROSINE KINASE INHIBITOR” (National Tsing Hua University, priority 2014, published 2016).

How the values were obtained:
[1] = Pharmacokinetics of injected C6-loaded nanoparticle composition (C6 in blood); type: in vivo, C3H mice; conditions: 0.5 to 1 hour after injection; 0.1 mg/kg tail intravenous injection; FIG. 6
Experimental: C6 was injected to C3H mice with or without the nanoparticle encapsulation at a dosage of 0.1 mg/kg via tail intravenous injection. 40 μL of blood from the tail artery of the mice were collected and mixed with ethylenediaminetetraacetic acid (EDTA) at different period of time. Fluorescence intensity was measured under an excitation wavelength of 485 nm and an emission wavelength of 538 nm. Standard curves of the C6 or C6-loaded PLGA nanoparticle composition in blood were used to calculate the content of C6 in mice.

[2] = tested on: hepatic stellate cell (HSC); type: cell-based; conditions: HSCs; MTT after 48 or 72 hours; FIG. 5B
Experimental: The HSC was purchased from ScienCell Research Laboratories (#5300, San Diego, Calif., USA) and the HUVEC was obtained from Bioresource Collection and Research Center, Food Industry Research and Development Institute (BCRC number: H-UV001, Hsinchu, Taiwan). Firstly, HUVECs and HSCs were planted in 96-well plates at a density of 2,000 cells/well and were left overnight for adhesion. Then, different forms of sorafenib or drug carriers were added. After 48 or 72 hours, 3-(4, 5-cimethylthiazol-2-yl)-2, 5-diphenyl tetrazolium bromide (MTT), which dissolved in PBS, was added to each well and the cells were further incubated at 37° C. for 3 hours. Finally, to each well, 50 μL of DMSO were added and a spectrophotometer was used to analyze the result at a wavelength of 570 nm. […] In addition, cells without any treatment served as Vehicle Group, while cells treated with free sorafenib served as Positive Control Group. […] Meanwhile, according to the results of cell viability of the cells treated with the PEG-PLGA particle alone (Negative Control Group 1) and PEG-PLGA/PLGA nanoparticle composition alone (Negative Control Group 2), it is confirmed that the PEG-PLGA and PEG-PLGA/PLGA co-polymer are non-cytotoxic and will not result in death of the target cells.

[3] = tested on: collagen I; experiment: Extracellular matrix (collagen I) content in fibrotic liver of treated mice; type: in vivo; conditions: FIG. 9C
Description: Collagen is the most abundant protein in not only the human body but also the extracellular matrix.

[4] = tested on: α-smooth muscle actin (α-SMA); experiment: α-SMA expression (western blotting) as indicator for HSC activation in treated mice; type: in vivo; conditions: FIG. 9A
Description: The expression of α-smooth muscle actin (α-SMA) is an indicator for HSC activation.

| SMILES | C6 concentration in blood [1] | cell viability [2] | extracellular matrix in fluorescent microscopic image (illuminated regions) [3] | α-SMA expression (western blotting) [4] |
| --- | --- | --- | --- | --- |
| CCN(CC)c1ccc2cc(-c3nc4ccccc4s3)c(=O)oc2c1 [C6 alone, Coumarin 6] | about 1% |  |  |  |
| CNC(=O)c1cc(Oc2ccc(NC(=O)Nc3ccc(Cl)c(C(F)(F)F)c3)cc2)ccn1 [free sorafenib, sorafenib] |  | about 75% | not noteworthy | suppressed |
